Patent publication US20250114345A1, “COMPOUNDS AND COMPOSITIONS AS CBP/P300 DEGRADERS AND USES THEREOF” (Oncopia Therapeutics, Inc. d/b/a/ SK Life Science Labs, priority 2023, published 2025)

How the values were obtained:
[1] = molecular target: T1, CBP (Homo sapiens, UniProt Q92793); experiment: CBP degradation, HiBit technology in A549 CBP HiBit cells (24 h); type: cell-based; conditions: 24 hrs post treatment
T1 construct: host or cells: A549 CBP HiBit cells
Outline: (§1)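 A549 HiBiT knock-in cells seeded overnight at 37 °C, 5% CO2 in F-12K with 10% heat-inactivated FBS, then given serial dilutions of compound from 10 mM DMSO stocks. Lytic HiBiT detection reagent added for 10 min at room temperature; luminescence read. Potency and Dmax reported.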

[2] = molecular target: T2, p300 (Homo sapiens, UniProt Q09472); experiment: P300 degradation, HiBit technology in A549 P300 HiBit cells (2 h); type: cell-based; conditions: 2 hrs post treatment; for Dmax: A549, A549 P300 HiBit cells; for DC50: A549 P300 HiBit cells
T2 construct: host or cells: A549 P300 HiBit cells
Outline: as §1

T1 sequence (Q92793 whole entry): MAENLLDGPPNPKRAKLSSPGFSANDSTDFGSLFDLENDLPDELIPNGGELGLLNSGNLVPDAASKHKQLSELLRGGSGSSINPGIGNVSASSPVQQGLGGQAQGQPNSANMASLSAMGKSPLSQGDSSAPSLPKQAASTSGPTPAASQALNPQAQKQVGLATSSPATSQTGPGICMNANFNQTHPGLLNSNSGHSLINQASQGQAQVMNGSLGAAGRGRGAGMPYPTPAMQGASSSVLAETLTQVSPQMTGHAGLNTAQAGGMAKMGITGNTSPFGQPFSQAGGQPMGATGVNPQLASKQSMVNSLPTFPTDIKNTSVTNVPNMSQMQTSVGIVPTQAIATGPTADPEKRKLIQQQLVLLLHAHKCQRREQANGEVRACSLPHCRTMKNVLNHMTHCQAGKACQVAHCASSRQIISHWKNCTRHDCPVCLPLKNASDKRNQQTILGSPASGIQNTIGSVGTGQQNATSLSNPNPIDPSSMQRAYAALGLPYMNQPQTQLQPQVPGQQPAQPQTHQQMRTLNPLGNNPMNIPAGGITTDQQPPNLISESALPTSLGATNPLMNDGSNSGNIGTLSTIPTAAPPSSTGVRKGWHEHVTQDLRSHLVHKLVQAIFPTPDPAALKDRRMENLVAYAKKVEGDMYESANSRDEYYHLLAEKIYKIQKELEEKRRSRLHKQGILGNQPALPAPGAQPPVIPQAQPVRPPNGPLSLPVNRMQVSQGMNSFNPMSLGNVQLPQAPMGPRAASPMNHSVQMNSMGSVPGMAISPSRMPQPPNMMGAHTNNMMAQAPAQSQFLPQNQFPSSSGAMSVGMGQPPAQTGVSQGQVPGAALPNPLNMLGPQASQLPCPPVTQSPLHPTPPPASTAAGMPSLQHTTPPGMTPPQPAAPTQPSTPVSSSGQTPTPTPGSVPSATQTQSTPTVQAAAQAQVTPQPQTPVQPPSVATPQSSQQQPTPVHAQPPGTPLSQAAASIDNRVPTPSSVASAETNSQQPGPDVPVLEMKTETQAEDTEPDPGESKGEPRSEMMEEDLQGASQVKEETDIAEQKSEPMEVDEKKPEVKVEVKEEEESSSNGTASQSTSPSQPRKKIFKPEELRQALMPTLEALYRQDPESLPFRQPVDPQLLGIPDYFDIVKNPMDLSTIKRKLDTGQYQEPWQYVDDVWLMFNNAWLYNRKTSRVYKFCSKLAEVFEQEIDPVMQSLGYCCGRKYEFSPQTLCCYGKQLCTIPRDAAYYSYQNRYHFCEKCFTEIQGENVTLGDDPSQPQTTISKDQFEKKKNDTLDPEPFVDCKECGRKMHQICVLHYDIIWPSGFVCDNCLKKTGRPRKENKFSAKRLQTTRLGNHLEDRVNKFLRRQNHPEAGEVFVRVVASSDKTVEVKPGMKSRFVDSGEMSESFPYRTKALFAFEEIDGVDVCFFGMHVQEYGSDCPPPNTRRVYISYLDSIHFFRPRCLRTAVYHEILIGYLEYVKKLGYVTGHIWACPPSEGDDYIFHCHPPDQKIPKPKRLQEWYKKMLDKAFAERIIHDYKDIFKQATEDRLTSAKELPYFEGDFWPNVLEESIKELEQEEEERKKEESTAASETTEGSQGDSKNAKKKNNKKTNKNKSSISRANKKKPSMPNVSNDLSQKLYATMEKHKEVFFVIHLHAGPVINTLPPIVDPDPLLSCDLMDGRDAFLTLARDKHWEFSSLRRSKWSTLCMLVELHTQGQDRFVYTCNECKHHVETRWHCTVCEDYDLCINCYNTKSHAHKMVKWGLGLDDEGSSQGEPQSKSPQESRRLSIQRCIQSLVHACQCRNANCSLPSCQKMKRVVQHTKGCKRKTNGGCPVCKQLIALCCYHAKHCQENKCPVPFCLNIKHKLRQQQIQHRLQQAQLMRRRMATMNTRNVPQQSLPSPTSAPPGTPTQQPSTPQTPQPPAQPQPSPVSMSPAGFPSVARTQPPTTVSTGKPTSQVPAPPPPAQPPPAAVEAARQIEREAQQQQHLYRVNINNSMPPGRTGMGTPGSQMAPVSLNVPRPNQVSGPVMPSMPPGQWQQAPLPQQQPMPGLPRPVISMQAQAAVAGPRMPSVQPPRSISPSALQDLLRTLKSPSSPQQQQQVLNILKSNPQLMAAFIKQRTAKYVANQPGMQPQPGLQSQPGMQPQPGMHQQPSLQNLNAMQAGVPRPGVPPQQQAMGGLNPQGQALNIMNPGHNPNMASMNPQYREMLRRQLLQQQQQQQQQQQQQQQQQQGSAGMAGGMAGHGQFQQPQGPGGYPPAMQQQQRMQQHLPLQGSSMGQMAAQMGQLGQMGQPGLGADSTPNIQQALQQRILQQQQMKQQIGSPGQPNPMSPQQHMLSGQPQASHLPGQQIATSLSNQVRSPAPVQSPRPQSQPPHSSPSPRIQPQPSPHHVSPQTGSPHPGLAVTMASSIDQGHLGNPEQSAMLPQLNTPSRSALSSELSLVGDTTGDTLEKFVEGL
T2 sequence (Q09472 whole entry): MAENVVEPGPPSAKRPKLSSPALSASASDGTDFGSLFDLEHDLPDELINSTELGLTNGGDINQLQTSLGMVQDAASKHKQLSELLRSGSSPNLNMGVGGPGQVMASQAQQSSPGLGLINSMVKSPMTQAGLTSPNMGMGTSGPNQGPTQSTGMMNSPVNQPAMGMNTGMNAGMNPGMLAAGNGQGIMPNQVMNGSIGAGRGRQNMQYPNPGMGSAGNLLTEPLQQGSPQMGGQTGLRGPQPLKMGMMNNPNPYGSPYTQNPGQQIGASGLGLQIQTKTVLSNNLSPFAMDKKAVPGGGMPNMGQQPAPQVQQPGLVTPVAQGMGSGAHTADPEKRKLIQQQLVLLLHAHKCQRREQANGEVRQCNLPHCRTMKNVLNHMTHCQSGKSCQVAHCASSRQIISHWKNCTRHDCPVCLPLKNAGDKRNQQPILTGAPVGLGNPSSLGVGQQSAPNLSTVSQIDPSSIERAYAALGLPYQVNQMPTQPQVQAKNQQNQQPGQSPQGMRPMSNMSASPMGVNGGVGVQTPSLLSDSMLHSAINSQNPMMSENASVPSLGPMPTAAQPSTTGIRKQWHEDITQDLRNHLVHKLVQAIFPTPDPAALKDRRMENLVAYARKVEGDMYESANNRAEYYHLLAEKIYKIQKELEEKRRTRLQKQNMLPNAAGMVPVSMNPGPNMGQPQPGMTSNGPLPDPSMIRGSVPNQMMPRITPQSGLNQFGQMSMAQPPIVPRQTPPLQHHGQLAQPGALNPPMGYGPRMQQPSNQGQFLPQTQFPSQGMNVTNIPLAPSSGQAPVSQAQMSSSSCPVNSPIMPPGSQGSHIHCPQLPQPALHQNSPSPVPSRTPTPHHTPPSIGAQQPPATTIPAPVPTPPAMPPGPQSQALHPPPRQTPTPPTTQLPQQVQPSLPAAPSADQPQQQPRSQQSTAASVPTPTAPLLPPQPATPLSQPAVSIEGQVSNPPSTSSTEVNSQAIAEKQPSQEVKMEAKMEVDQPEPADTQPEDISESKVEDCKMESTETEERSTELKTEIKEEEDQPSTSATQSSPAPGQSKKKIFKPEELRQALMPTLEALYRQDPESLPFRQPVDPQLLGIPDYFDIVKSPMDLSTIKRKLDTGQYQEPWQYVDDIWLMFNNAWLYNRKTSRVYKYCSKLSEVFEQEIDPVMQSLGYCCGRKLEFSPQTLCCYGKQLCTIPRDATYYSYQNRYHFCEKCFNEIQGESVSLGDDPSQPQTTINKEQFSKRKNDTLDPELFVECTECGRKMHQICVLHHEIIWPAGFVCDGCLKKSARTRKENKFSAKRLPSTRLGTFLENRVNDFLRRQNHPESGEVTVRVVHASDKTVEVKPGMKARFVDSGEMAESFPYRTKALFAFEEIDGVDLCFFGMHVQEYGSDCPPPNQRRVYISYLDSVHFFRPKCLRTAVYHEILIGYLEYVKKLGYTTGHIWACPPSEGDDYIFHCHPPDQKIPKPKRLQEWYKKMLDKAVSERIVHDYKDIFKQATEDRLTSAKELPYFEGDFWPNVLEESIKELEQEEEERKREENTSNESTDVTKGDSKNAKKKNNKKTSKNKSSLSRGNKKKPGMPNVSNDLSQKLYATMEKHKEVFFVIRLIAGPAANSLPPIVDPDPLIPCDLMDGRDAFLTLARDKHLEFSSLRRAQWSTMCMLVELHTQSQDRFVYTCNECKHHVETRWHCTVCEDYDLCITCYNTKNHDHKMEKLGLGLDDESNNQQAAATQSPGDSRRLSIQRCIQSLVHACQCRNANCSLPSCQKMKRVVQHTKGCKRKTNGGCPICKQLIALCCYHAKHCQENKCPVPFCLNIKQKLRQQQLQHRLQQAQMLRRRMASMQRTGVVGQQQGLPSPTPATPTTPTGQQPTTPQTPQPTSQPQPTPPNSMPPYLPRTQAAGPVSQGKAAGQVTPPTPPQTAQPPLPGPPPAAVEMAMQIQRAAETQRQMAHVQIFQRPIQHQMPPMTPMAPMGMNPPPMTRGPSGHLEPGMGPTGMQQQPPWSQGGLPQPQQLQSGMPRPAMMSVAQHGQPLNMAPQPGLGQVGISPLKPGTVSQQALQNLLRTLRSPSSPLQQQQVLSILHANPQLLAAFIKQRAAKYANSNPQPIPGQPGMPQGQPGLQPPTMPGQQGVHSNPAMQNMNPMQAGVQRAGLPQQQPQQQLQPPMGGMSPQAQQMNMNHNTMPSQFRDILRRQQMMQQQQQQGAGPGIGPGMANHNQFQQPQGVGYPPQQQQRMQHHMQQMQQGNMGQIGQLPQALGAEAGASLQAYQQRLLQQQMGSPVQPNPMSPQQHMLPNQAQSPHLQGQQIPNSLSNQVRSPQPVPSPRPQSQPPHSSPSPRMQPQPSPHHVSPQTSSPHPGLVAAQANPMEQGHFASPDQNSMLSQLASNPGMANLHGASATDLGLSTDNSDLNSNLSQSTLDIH

| SMILES | DC50 [1] [nM] | Dmax [1] [%] | Dmax [2] [%] | DC50 [2] [nM] |
| --- | --- | --- | --- | --- |
| Cc1cc2c(N3CCCc4nc(-c5cnc(C(=O)NCC#Cc6cc7c(C8CCC(=O)NC8=O)cccc7o6)cn5)ncc43)cc(C3CCOCC3)cc2n(C)c1=O (centres unmarked) [Example B87, 5-(5-(1,3-dimethyl-2-oxo-7-(tetrahydro-2H-pyran-4-yl)-1,2-dihydroquinolin-5-yl)-5,6,7,8-tetrahydropyrido[3,2-d]pyrimidin-2-yl)-N-(3-(4-(2,6-dioxopiperidin-3-yl)benzofuran-2-yl)prop-2-yn-1-yl)pyrazine-2-carboxamide] | > 1000 | < 20 | 60 to 79 | 1 to 9.9 |
| Cn1c(=O)n(C)c2cc(-c3cccc4cc(-c5ccc(C(=O)NCC#Cc6cc7c(C8CCC(=O)NC8=O)cccc7o6)nc5)ncc34)ccc21 (centres unmarked) [Example A169, 5-(8-(1,3-dimethyl-2-oxo-2,3-dihydro-1H-benzo[d]imidazol-5-yl)isoquinolin-3-yl)-N-(3-(4-(2,6-dioxo-piperidin-3-yl)benzofuran-2-yl)prop-2-yn-1-yl)picolinamide] | > 1000 | < 20 | > 80 | < 1 |
| Cc1cc2c(N3CCCc4nc(-c5ccc(C(=O)NCC#Cc6cc7c(C8CCC(=O)NC8=O)nccc7o6)nc5)ncc43)cc(C(C)C)cc2n(C)c1=O (centres unmarked) [Example B157, N-(3-(4-(2,6-dioxopiperidin-3-yl)furo[3,2-c]pyridin-2-yl)prop-2-yn-1-yl)-5-(5-(7-isopropyl-1,3-dimethyl-2-oxo-1,2-dihydroquinolin-5-yl)-5,6,7,8-tetrahydropyrido[3,2-d]pyrimidin-2-yl) picolinamide] | 10 to 99 | 20 to 39 | > 80 | 1 to 9.9 |
| Cc1cc(-c2ncc3c(n2)OCCN3c2ccc3c(c2)n(C)c(=O)n3C)cnc1C(=O)NCC#Cc1cc2ccnc(C3CCC(=O)NC3=O)c2o1 (centres unmarked) [Example A251, 5-(5-(1,3-dimethyl-2-oxo-2,3-dihydro-1H-benzo[d]imidazol-5-yl)-6,7-dihydro-5H-pyrimido[4,5-b][1,4]oxazin-2-yl)-N-(3-(7-(2,6-dioxopiperidin-3-yl)furo[2,3-c]pyridin-2-yl)prop-2-yn-1-yl)-3-methylpicolinamide] | > 1000 | < 20 | 60 to 79 | 10 to 99 |
| CCn1c(=O)n(C)c2c(N3CCOCC3)nc(-c3cccc4cc(-c5ccc(C(=O)NCC#Cc6ccc7occ(C8CCC(=O)NC8=O)c7c6)nc5)ncc34)cc21 (centres unmarked) [Example A108, N-(3-(3-(2,6-dioxo-piperidin-3-yl)benzofuran-5-yl)prop-2-yn-1-yl)-5-(8-(1-ethyl-3-methyl-4-morpholino-2-oxo-2,3-dihydro-1H-imidazo[4,5-c]pyridin-6-yl)isoquinolin-3-yl)picolinamide] | > 1000 | < 20 | > 80 | 1 to 9.9 |
| Cc1cc2c(N3CCCc4nc(-c5ccc(C(=O)NCC#Cc6ccc7occ(C8CCC(=O)NC8=O)c7c6)nc5)ncc43)cccc2n(C)c1=O (centres unmarked) [Example B110, 5-(5-(1,3-dimethyl-2-oxo-1,2-dihydroquinolin-5-yl)-5,6,7,8-tetrahydropyrido[3,2-d]pyrimidin-2-yl)-N-(3-(3-(2,6-dioxopiperidin-3-yl)benzofuran-5-yl)prop-2-yn-1-yl)picolinamide] | > 1000 | < 20 | > 80 | 1 to 9.9 |
| Cn1c(=O)n(C)c2c(N3CC4(COC4)C3)nc(-c3cccc4cc(-c5ccc(C(=O)NCC#Cc6ccc7occ(C8CCC(=O)NC8=O)c7c6)nc5)ncc34)cc21 (centres unmarked) [Example A136, 5-(8-(1,3-dimethyl-2-oxo-4-(2-oxa-6-azaspiro[3.3]heptan-6-yl)-2,3-dihydro-1H-imidazo[4,5-c]pyridin-6-yl)isoquinolin-3-yl)-N-(3-(3-(2,6-dioxopiperidin-3-yl)benzofuran-5-yl)prop-2-yn-1-yl)picolinamide] | > 1000 | < 20 | > 80 | 1 to 9.9 |
| Cc1cc2c(N3CCCc4nc(-c5ccc(C(=O)NCC#Cc6ccc7occ(C89CC(C8)C(=O)NC9=O)c7c6)nc5)ncc43)cc(C3CCOCC3)cc2n(C)c1=O [Example B107, 5-(5-(1,3-dimethyl-2-oxo-7-(tetrahydro-2H-pyran-4-yl)-1,2-dihydroquinolin-5-yl)-5,6,7,8-tetrahydropyrido[3,2-d]pyrimidin-2-yl)-N-(3-(3-(2,4-dioxo-3-azabicyclo[3.1.1]heptan-1-yl)benzofuran-5-yl)prop-2-yn-1-yl) picolinamide] | > 1000 | < 20 | 60 to 79 | 1 to 9.9 |
| Cc1cc2c(-c3cccc4cc(-c5ccc(C(=O)NCC#Cc6ccc7occ(C8CCC(=O)NC8=O)c7c6)nc5)ncc34)nc(N3CCOCC3)cc2n(C)c1=O (centres unmarked) [Example B92, 5-(8-(1,3-dimethyl-7-morpholino-2-oxo-1,2-dihydro-1,6-naphthyridin-5-yl)isoquinolin-3-yl)-N-(3-(3-(2,6-dioxopiperidin-3-yl)benzofuran-5-yl)prop-2-yn-1-yl)picolinamide] | 10 to 99 | 20 to 39 | > 80 | 1 to 9.9 |
| Cc1c(-c2ccc(C(=O)NCC#Cc3ccc4occ(C5CCC(=O)NC5=O)c4c3)nc2)ncc2c(-c3ccc4c(c3)n(C)c(=O)n4C)cccc12 (centres unmarked) [Example A63, 5-(8-(1,3-dimethyl-2-oxo-2,3-dihydro-1H-benzo[d]imidazol-5-yl)-4-methylisoquinolin-3-yl)-N-(3-(3-(2,6-dioxo-piperidin-3-yl)benzofuran-5-yl)prop-2-yn-1-yl)picolinamide] | 100 to 999 | < 20 | > 80 | < 1 |
| Cc1cc(-c2ncc3c(n2)CCCN3c2cc(C3CCOCC3)cc3c2cc(C)c(=O)n3C)cnc1C(=O)NCC#Cc1cc2c(C3CCC(=O)NC3=O)cccc2s1 (centres unmarked) [Example B165, 5-(5-(1,3-dimethyl-2-oxo-7-(tetrahydro-2H-pyran-4-yl)-1,2-dihydroquinolin-5-yl)-5,6,7,8-tetrahydropyrido[3,2-d]pyrimidin-2-yl)-N-(3-(4-(2,6-dioxopiperidin-3-yl)benzo[b]thiophen-2-yl)prop-2-yn-1-yl)-3-methylpicolinamide] | 10 to 99 | 20 to 39 | > 80 | 1 to 9.9 |
| CC(C)c1cc(N2CCCc3cc(-c4ccc(C(=O)NCC#Cc5ccc6occ(C7CCC(=O)NC7=O)c6c5)nc4)ncc32)cc2c1n(C)c(=O)n2C (centres unmarked) [Example A100, N-(3-(3-(2,6-dioxo-piperidin-3-yl)benzofuran-5-yl)prop-2-yn-1-yl)-5-(1-(7-isopropyl-1,3-dimethyl-2-oxo-2,3-dihydro-1H-benzo [d]imidazol-5-yl)-1,2,3,4-tetrahydro-1,7-naphthyridin-6-yl)picolinamide] | 10 to 99 | 20 to 39 | > 80 | 1 to 9.9 |
| CC(C)c1cc(-c2cccc3cc(-c4ccc(C(=O)NCC#Cc5ccc6oc(F)c(C7CCC(=O)NC7=O)c6c5)nc4)ncc23)cc2c1n(C)c(=O)n2C (centres unmarked) [Example A158, N-(3-(3-(2,6-dioxo-piperidin-3-yl)-2-fluorobenzofuran-5-yl)prop-2-yn-1-yl)-5-(8-(7-isopropyl-1,3-dimethyl-2-oxo-2,3-dihydro-1H-benzo [d]imidazol-5-yl)isoquinolin-3-yl)picolinamide] | 10 to 99 | 40 to 59 | > 80 | 1 to 9.9 |
| CC(C)c1cc(-c2cccc3cc(-c4ccc(C(=O)NC/C=C/c5cc(NC6CCC(=O)NC6=O)nn5C)nc4)ncc23)cc2c1n(C)c(=O)n2C (centres unmarked) [Example A16, (E)-N-(3-(3-((2,6-Dioxopiperidin-3-yl)amino)-1-methyl-1H-pyrazol-5-yl)allyl)-5-(8-(7-isopropyl-1,3-dimethyl-2-oxo-2,3-dihydro-1H-benzo[d]imidazol-5-yl)isoquinolin-3-yl)picolinamide] | > 1000 | < 20 | 20 to 39 | 1 to 9.9 |
| Cc1cc(-c2ccc(N(C)c3cc(C(C)C)c4c(c3)n(C)c(=O)n4C)cn2)cnc1C(=O)NCC#Cc1cccc(NC2CCC(=O)NC2=O)c1 (centres unmarked) [Example A34, N-(3-(3-((2,6-Dioxopiperidin-3-yl)amino)phenyl)prop-2-yn-1-yl)-5-((7-isopropyl-1,3-dimethyl-2-oxo-2,3-dihydro-1H-benzo[d]imidazol-5-yl)(methyl)amino)-5′-methyl-[2,3′-bipyridine]-6′-carboxamide] | > 1000 | < 20 | > 80 | 10 to 99 |
| CC(C)c1cc(-c2cccc3cc(-c4ccc(C(=O)NCC#Cc5ccc6[nH]nc(C7CCC(=O)NC7=O)c6c5)nc4)ncc23)cc2c1n(C)c(=O)n2C (centres unmarked) [Example A204, N-(3-(3-(2,6-dioxo-piperidin-3-yl)-1H-indazol-5-yl)prop-2-yn-1-yl)-5-(8-(7-isopropyl-1,3-dimethyl-2-oxo-2,3-dihydro-1H-benzo [d]imidazol-5-yl)isoquinolin-3-yl)picolinamide] | 1 to 9.9 | 60 to 79 | > 80 | 1 to 9.9 |
| Cc1cc2c(N3CCCc4nc(-c5ccc(C(=O)NCC#Cc6ccc7occ(C8CCC(=O)NC8=O)c7c6)nc5)ncc43)cc(N3CCOCC3)nc2n(C)c1=O (centres unmarked) [Example B61, 5-(5-(6,8-dimethyl-2-morpholino-7-oxo-7,8-dihydro-1,8-naphthyridin-4-yl)-5,6,7,8-tetrahydropyrido[3,2-d]pyrimidin-2-yl)-N-(3-(3-(2,6-dioxopiperidin-3-yl)benzofuran-5-yl)prop-2-yn-1-yl)picolinamide] | > 1000 | < 20 | 60 to 79 | 1 to 9.9 |
